Reference: publication PMC11357661, “Gaining Insight into Mitochondrial Targeting: AUTAC-Biguanide as an Anticancer Agent” (Molecules, 2024)
Where two headings read alike, the source gives them in different places.

What was measured:
[1] = system: IMR90 (lung fibroblasts, healthy cells); experiment: Cell proliferation assay (crystal violet), EC50 determination; type: cell-based; conditions: for EC50: Homo sapiens, IMR-90, 72 h of treatment, mean ± SD; for effect on healthy cell line IMR90 (toxicity): at the concentrations examined
Procedure: (§1) Materials and methods for in vitro experiments: Absorbance measurements for EC50 determination were performed using a SpectraMax 190 microplates reader from Molecular Devices. Resulting data were analyzed with PRISM software (version 10.3.0) using curve fitting with non-linear regression (log(inhibitor) vs. response—variable slope (four parameters)). Statistical analyses were also performed using the PRISM software, using a one-way ANOVA test. Protein concentrations were determined using a Nanodrop 2000c spectrophotometer from Thermo Scientific (Waltham, MA, USA). A ChemiDoc MP Imaging System from BIO-RAD (Hercules, CA, USA) was used for imaging and analyzing Western blots. Resulting data were treated with Image Lab software (version 6.1).
(§2) Cells were seeded at a density of 1 × 10^3 cells per well for KP4 and PANC1, 4 × 10^3 for IMR90, and 2 × 10^3 for hTERT-HPNE in 96 well plates one day prior to treatments with vehicle and compounds for 72 h. The culture medium was removed. Cells were washed twice with cold PBS, and 1% glutaraldehyde was added to the wells for fixation for 10 min. Cells were then washed with water, stained with 0.2% crystal violet for 30 min at room temperature, washed with water, and then dried. The adherent crystal violet was solubilized in 10% acetic acid and the absorbance was read at a wavelength of 590 nm for the calculation of the cell viability.

[2] = system: PANC1 pancreatic cancer cells; experiment: as above; type: cell-based; conditions: Homo sapiens, PANC-1
Procedure: as §1, §2

[3] = system: LC3-II in KP4 cells; experiment: Immunoblot of LC3-I and LC3-II protein levels (autophagy); type: cell-based; conditions: KP4, 24 h; for LC3-II level: relative to DMSO, metformin 200 µM and 2 mM, 7 200 µM, 6 100 and 200 µM
Procedure: Immunoblot analysis: For the protein degradation assay, cells were seeded at a density of 1 × 10^5 cells per well in 6-well plates overnight, and then treated with vehicle and compounds for 24 h. The culture medium was removed. […] Equal amounts of protein were separated via sodium dodecyl sulfate-polyacrylamide gel electrophoresis (SDS-PAGE) and transferred to nitrocellulose membranes. […] Membranes were washed again with TBST and incubated with the primary antibody overnight at 4 °C. After being washed with TBST three times, the membranes were incubated with the secondary antibody for 1 h. After being washed with TBST three times, membranes were visualized using chemiluminescence using a Western Lightning™ Plus Chemiluminescence Reagent.

[4] = system: mitochondria in KP4 cells; experiment: Cell fluorescence assay: mitochondrial morphology by MitoTracker Deep Red FM confocal microscopy; type: cell-based; conditions: for mitochondrial morphology (MTDR): metformin 2 mM, 7 1 mM, 6 50-200 µM
Procedure: Cell fluorescence assay: KP4 cells were seeded at a density of 8 × 10^4 cells per well on top of microscope cover glasses in 6-well plates overnight. They were then treated with vehicle or the studied compounds for 24 h. The culture medium was refreshed with a solution of the MitoTracker® Deep Red FM (100 nM in DMEM). After 30 min at 37 °C, the medium was removed. Cells were washed twice with PBS and a solution of 4% paraformaldehyde was added into the wells for fixation for 10 min. Cells were washed again three times with 0.1 M glycine in PBS. A drop of mounting medium for fluorescence with DAPI was used to adhere cover glasses to microscope slides.

[5] = system: KP4 pancreatic cancer cells; experiment: Cell proliferation assay (crystal violet), EC50 determination; type: cell-based; conditions: for impact on the growth of cancer cells: KP4 and PANC1
Procedure: as §1, with “Resulting data were analyzed with PRISM software (version 10.3.0) using curve fitting with non-linear regression (log(inhibitor) vs. response—variable slope (four parameters)).” left out
as §2

[6] = system: OXPHOS proteins (vATP5A, UQCR2, SDHB, COXII, NDUFB8) in KP4 cells; experiment: Immunoblot of OXPHOS mitochondrial respiratory chain proteins; type: cell-based; conditions: KP4, 24 h of treatment
Procedure: Immunoblot analysis: For the protein degradation assay, cells were seeded at a density of 1 × 10^5 cells per well in 6-well plates overnight, and then treated with vehicle and compounds for 24 h. The culture medium was removed. Cells were washed twice with cold PBS and lysed with LAEMMLI 2X (BIO-RAD, Hercules, CA, USA, 4% SDS, 20% glycerol, 0.125 M Tris-HCl (pH 6.8)). Equal amounts of protein were separated via sodium dodecyl sulfate-polyacrylamide gel electrophoresis (SDS-PAGE) and transferred to nitrocellulose membranes. […] Membranes were washed again with TBST and incubated with the primary antibody overnight at 4 °C. After being washed with TBST three times, the membranes were incubated with the secondary antibody for 1 h. After being washed with TBST three times, membranes were visualized using chemiluminescence using a Western Lightning™ Plus Chemiluminescence Reagent.

[7] = system: hTERT-HPNE (immortalized pancreatic cells, healthy cells); experiment: Cell proliferation assay (crystal violet), EC50 determination; type: cell-based, Human; conditions: for EC50: Homo sapiens, 72 h of treatment, mean ± SD; for effect on healthy cell line hTERT-HPNE (toxicity): at the concentrations examined
Procedure: as §1, with “Resulting data were analyzed with PRISM software (version 10.3.0) using curve fitting with non-linear regression (log(inhibitor) vs. response—variable slope (four parameters)).” left out
Cell Lines: Human pancreatic normal epithelial (HPNE hTERT) cells were obtained from Dr. M. Ouellette (University of Nebraska Medical Center). IMR90 was obtained from Coriell Institute (I90-79). PANC1 was obtained from ATCC and KP4 from the Massachusetts General Hospital Center for Molecular Therapeutics (CMT), courtesy of Dr. Bardeesy. […] All cell lines tested negative for mycoplasma contamination. No unpublished de novo cell lines were used.
as §2

[8] = system: mitochondria (TOMM20) in KP4 cells; experiment: Immunofluorescence assay of TOMM20 (mitochondrial morphology); type: cell-based; conditions: KP4, 24 h; compound 6 200 µM, metformin 2 mM
Procedure: Immunofluorescence assay: KP4 cells were seeded at a density of 8 × 10^4 cells per well on top of microscope cover glasses in 6-well plates overnight. They were then treated with vehicle or the studied compounds for 24 h. The culture medium was removed, and cells were washed three times with cold PBS. A solution of 4% paraformaldehyde was added into the wells for fixation for 10 min. Cells were washed again three times with 0.1 M glycine in PBS, then incubated with a solution of 3% BSA and 0.2% […] in PBS for 5 min at room temperature. Cells were washed again three times with a solution of 3% BSA in PBS, then incubated overnight with the primary antibody TOMM20 (1:100 in PBS, pH 7.4, 3% BSA). Cells were washed three times with 3% BSA in PBS and incubated for 1 h with the secondary antibody AF488 (1:2000 in PBS, pH 7.4, 3% BSA). Cells were finally washed three times with 3% BSA in PBS. A drop of mounting medium for fluorescence with DAPI was used to adhere cover glasses to microscope slides.
Antibodies: • I. Tom20 Antibody (F-10) #sc-17764 (Santa Cruz Biotechnology, Dallas, TX, USA): 1:100, 3% BSA in 1X PBS; • II. Goat anti-Mouse IgG (H + L) Highly Cross-Adsorbed Secondary Antibody, Alexa Fluor™ 488 #A-11029 (ThermoFisher/Invitrogen, Waltham, MA, USA): 1:2000, 3% BSA in 1X PBS.

[9] = 72 h of treatment, mean ± SD, read-out: EC50 PANC1
[10] = Pancreatic cancer cell, 72 h of treatment, mean ± SD, read-out: EC50 KP4
[11] = Homo sapiens, PANC-1, KP4 and PANC1, text summary, read-out: median effective concentration / concentration of toxic activity on pancreatic cancer cell lines
[12] = Pancreatic cancer cell, in Figure 2, read-out: EC50 KP4 (Figure 2)

| EC50 [2, 9] | EC50 [5, 10] | EC50 ([2]; in Figure 2, read-out: EC50 PANC1 (Figure 2)) | SMILES | EC50 [1] | effect on healthy cell line IMR90 (toxicity) [1] | LC3-II level [3] | mitochondrial morphology (MTDR) ([4]; KP4, 24 h) | impact on the growth of cancer cells [5] | levels of OXPHOS mitochondrial respiratory chain proteins [6] | EC50 [7] | effect on healthy cell line hTERT-HPNE (toxicity) [7] | mitochondrial morphology (TOMM20 immunofluorescence) [8] | EC50 [5, 11] | EC50 [5, 12] | effect on lysosomal degradation of LC3B (LC3-II with and without chloroquine) ([3]; in the presence of chloroquine) | cells displaying a fragmented or punctate mitochondrial network ([4]; KP4, 100 µM, 24 h of treatment, MTDR) | cells maintaining a filamentous network ([4]; KP4, 200 µM (doubling of 100 µM), 24 h, MTDR) | MTDR fluorescence intensity ([4]; KP4, 24 h) | selectivity index (SI) ([5]; cancer cells over healthy cells, 72 h of treatment) |
| --- | --- | --- | --- | --- | --- | --- | --- | --- | --- | --- | --- | --- | --- | --- | --- | --- | --- | --- | --- |
| > 1000 µM | > 1000 µM | – | CCCCCCNC(=O)C(CSc1nc2c(=O)[nH]c(N)nc2n1Cc1ccc(F)cc1)NC(C)=O (stereo not drawn) [compound 7] | > 1000 µM | without exhibiting toxicity | elevate LC3-II levels | predominantly formed a filamentous network | no discernible impact | no effect on OXPHOS proteins | 110 ± 20 µM | appeared to affect | – | – | – | – | – | – | – | – |
| > 5000 µM | > 5000 µM | – | CC(=O)N[C@@H](CSc1nc2c(=O)[nH]c(N)nc2n1Cc1ccc(F)cc1)C(=O)O [compound 5] | > 5000 µM | without exhibiting toxicity | – | – | no discernible impact | – | 3510 ± 1450 µM | appeared to affect | – | – | – | – | – | – | – | – |

More lines, now with the values behind:

| SMILES | EC50 [2, 9] | EC50 [5, 10] | EC50 ([2]; in Figure 2, read-out: EC50 PANC1 (Figure 2)) | EC50 [1] | effect on healthy cell line IMR90 (toxicity) [1] | LC3-II level [3] | mitochondrial morphology (MTDR) ([4]; KP4, 24 h) | impact on the growth of cancer cells [5] | levels of OXPHOS mitochondrial respiratory chain proteins [6] | EC50 [7] | effect on healthy cell line hTERT-HPNE (toxicity) [7] | mitochondrial morphology (TOMM20 immunofluorescence) [8] | EC50 [5, 11] | EC50 [5, 12] | effect on lysosomal degradation of LC3B (LC3-II with and without chloroquine) ([3]; in the presence of chloroquine) | cells displaying a fragmented or punctate mitochondrial network ([4]; KP4, 100 µM, 24 h of treatment, MTDR) | cells maintaining a filamentous network ([4]; KP4, 200 µM (doubling of 100 µM), 24 h, MTDR) | MTDR fluorescence intensity ([4]; KP4, 24 h) | selectivity index (SI) ([5]; cancer cells over healthy cells, 72 h of treatment) |
| --- | --- | --- | --- | --- | --- | --- | --- | --- | --- | --- | --- | --- | --- | --- | --- | --- | --- | --- | --- |
| CN(C)C(=N)N=C(N)N [Met., Metformin, reference compound] | 3130 ± 1410 µM | 1490 ± 550 µM | – | > 20000 µM | no noticeable effect | – | – | – | did not appear to affect the levels | > 20000 µM | – | mild fragmentation of the network | 1000 to 4000 µM | 2210 µM | – | – | – | – | – |
| CCN(CC)CCCC(C)Nc1ccnc2cc(Cl)ccc12 (stereo not drawn) [chloroquine, reference compound] | – | – | – | – | – | increase in LC3-II levels | – | – | – | – | – | – | – | – | – | – | – | – | – |
| CC(=O)NC(CSc1nc2c(=O)[nH]c(N)nc2n1Cc1ccc(F)cc1)C(=O)NCCCCCCNC(=N)NC(=N)N.O=CO (stereo not drawn) [compound 6] | 150 ± 30 µM | 100 ± 30 µM | 103 µM | > 1000 µM | no adverse impact | mild increase in LC3-II levels | punctate configuration | – | decrease in complex I and complex IV mitochondrial respiratory chain proteins | > 1000 µM | no adverse impact | majority of cells assumed a punctate appearance | ~100 µM | 74 µM | does not affect the degradation of LC3B | more than 50% | < 10% | decrease in fluorescence intensity | >10 |
